In US20030130180A1, “Utilization of an aminopeptidase inhibitor” (priority 2000, published 2003):

What was measured:
[1] = test system: tumor cells and immune cells; assay: Cell-biological experiments on blocking of polarization of tumor cells and immune cells; type: cell-based; conditions: general statement
Excerpt: By means of a method of simultaneously detecting a number of cell surface proteins, it has been established that aminopeptidases will control cell surface proteins which are not part of the class of proteolytic enzymes, but belong to the class of the adhesion molecules, which adhesion molecules—in a certain combination and geometric array—will be decisive for the polarization of the cells. Consequently, aminopeptidases appear to be superordinate control proteins in a protein network consisting of up to 30 different cell surface protein species which—through specific interaction with one another—will control polarization of tumor cells and other invasive cells such as immune cells and which are listed above. The inhibition of at least one aminopeptidase will lead to a reproducible modification of surface protein combinations on the cell surface which will always also involve a modification of CD13. […] The term polarization as used here shall denote a process in which a primarily spherical cell will transition into an oblong, elongated cell shape, via various intermediate states. This process which constitutes a change of shape controlled by the complex protein network is the prerequisite for cell migration, since only cells of oblong shape are capable of migrating. The polarization process therefore needs to precede all cell migration processes, including invasion. […]

[2] = test system: tumor cells; conditions: in vitro, matrigel analytic system; cited from earlier work

In the case of `CCCCC[C@H](CC(=O)NO)C(=O)N[C@H](C(=O)N1CCC[C@H]1CO)C(C)C` [actinonin], the “effectiveness as aminopeptidase inhibitor blocking polarization” value [1] is listed as “particularly effective” and the tumor cell invasion [2] is listed as “do not have an effect”.
